Measurements as given in patent US20190070170A1, “METHOD OF S[…]-1” (Macau University of Science and Technology, priority 2017, published 2019).

Columns and labels:
[1] = tested on: COX-2; assay: COX-2 protein expression in LPS-activated rat peritoneal macrophages (western blotting); format: cell-based; details: SIN or DEX 1 h, LPS 24 h
Experimental: Sprague-Dawley (SD) rats from the University of Hong Kong were housed in cages with free access to food and water. Peritoneal macrophages of SD rats were isolated as described in Liu J. et al., Pharmacological research 2016, 111:303-315. Briefly, untreated rats were sacrificed and after laparotomy, about 50 ml cold sterile Hank's balanced salt solution (HBSS) was used to lavage the peritoneal cavity at twice, and then the peritoneal lavage fluid was collected and centrifuged at 1500 rpm for 10 min. The cell pellets was suspended at a density 1.5×10^6 cells/ml in pre-hearted DMEM medium with 10% heat-inactivated FBS, penicillin G (100 units/ml), streptomycin ([…]), and L-glutamine (2 mM), followed by seeding in 6-well plates at a density of 4.5×10^6 cells and incubation for 2 h. Then the medium were discarded to remove the non-adherent cells. The adherent cells were further washed for two times with pre-heated DMEM medium to remove floating cells. Next, cells were pre-treated with various concentration of SIN for 1 h, followed by stimulation with LPS (1 μg/ml).
(§1) Whole-cell and nuclear proteins were obtained using RIPA lysis buffer (CST, Boston, Mass., USA) and Nuclear and Cytoplasmic Extraction Reagents kit from Thermo Scientific (Asheville, N.C., USA), respectively. […] The levels of protein expression were measured using Odyssey v3.0 software from Li-COR (Lincoln, Nebr., USA).

[2] = tested on: mPGES-1; assay: mPGES-1 mRNA level in LPS-activated rat peritoneal macrophages (qRT-PCR); format: cell-based; details: SIN 1 h, LPS 12 h
Experimental: (§2) Peritoneal macrophages were cultured in 6-well plates and pre-treated with the indicated concentration of SIN for 1 h, followed by LPS stimulation for another 12 h. RNA was isolated from rat peritoneal macrophages using the Nucleospin RNA kit from Macherey-Nagel (Duren, Germany) according to the manufacturer's instructions. RNA concentration derived from each sample was assessed by NanoDrop UV Spectrophotometer from Thermo Scientific (Asheville, N.C., USA). RNA (1 μg) was reverse transcripted using the transcriptor universal cDNA master reagents from Roche Applied Science (Mannheim, Germany). Gene expression quantification was performed by a high-productivity real-time quantitative PCR ViiA™ 7 machine using SYBR Green reagents from Roche Applied Science (Mannheim, Germany) according a standard protocol recommended by the manufacturer and the cycling parameters were as followed: uracil removal incubation (50° C., 2 min), polymerase activation (95° C., 10 min), 40 cycles of denaturation (95° C., 15 s) and annealing/extension (60° C., 30 s) and a melt curve stage (95° C., 15 s, 60° C., 1 min and 95° C., 15 s).
(§3) Rat primers used in the research are listed as follows:
(§4) • The levels of gene expression were quantitated using the 2(−Delta Delta C(T)) method. […]

[3] = tested on: PGE2; assay: RNA interference experiment of mPGES-1: PGE2 production in mPGES-1 knockdown RAW264.7 cells; format: cell-based, mouse; details: mPGES-1 siRNA RAW264.7 cells; SIN 640 μM or DEX 0.5 μM 1 h, LPS 10 ng/mL 18 h
Experimental: RAW264.7 cells were transfected with ON-TARGETplus SMARTpool mPGES-1 siRNA (mPGES-1 siRNA) or nonspecific siRNA (NS siRNA) using HiPerFect transfection reagent according to the manufacturer's recommended protocols. After 24 h of transfection, the cells were treated with or without SIN (640 μM) or DEX (0.5 μM) in complete growth medium. After 1 h, all groups were stimulated with LPS (10 ng/mL) for 18 h except the control group. Then the cell culture media were collected and stored at −20° C. for later analysis of the levels of PGE2. Cells were harvested for qRT-PCR, the mouse primers used are listed as follows: […]

[4] = tested on: COX-2; assay: COX-2 mRNA level in LPS-activated rat peritoneal macrophages (qRT-PCR); format: cell-based; details: SIN 1 h, LPS 12 h
Experimental: as §2, §3, §4

[5] = tested on: COX-2; assay: COX-2 protein expression in hind paws of CIA DBA/1 mice; format: in vivo; details: SIN 100 mg/kg i.p.
Experimental: Female DBA/1 mice (8-9 weeks old) were purchased from Shanghai SiLaike (SLAC) Laboratory Animal Company (Shanghai, China) and fed with a chow diet and water at room temperature. Equal volume of complete Freuend's adjuvant (CFA) and Bovine Type II Collagen (CII) were mixed and emulsified using a homogenizer (13,000 rpm) on ice. On day 0, DBA/1 mice were immunized by injecting 50 μl of CII in CFA in the tail, approximately 2 cm from the base of the tail. […] The incidence of joint swelling in each group was recorded every two days since drug treatment. […]
Frozen paws were pulverized in liquid nitrogen using a stainless steel mortar and pestle, then re-suspended in 8 volumes of ice-cold PBS from Invitrogen (San Diego, Calif., USA) with 2.6 mM DTT from Promega (Madison, Wis., USA) and 2×Complete Protease Inhibitor mixture from Roche (Mannheim, Germany), and homogenized on ice bath using a tissue homogenizer from T25 digital, IKA (Stanfen, Germany) at 10,000 rpm/min for 5 min. […] The protein concentrations were measured using a Bio-Rad protein assay kit (Hercules, Calif., USA). […]
as §1

For `COC1=C[C@@H]2[C@@H]3Cc4ccc(OC)c(O)c4[C@]2(CCN3C)CC1=O` [SIN, sinomenine], the COX-2 protein expression [1] was “did not suppress”, the “mPGES-1 gene expression (mRNA)” value [2] was “significantly and dose-dependently inhibited” and the “change of the compound's inhibitory effect on PGE2 production by mPGES-1 knockdown” value [3] was “not affected”. For the same compound, the “gene level of COX-2 (mRNA)” value [4] was “did not suppress” and the “COX-2 expression in paw tissues” value [5] was “did not produce observable changes”.
